Patent US5441887A, “Rapid degradation of halogenated hydrocarbons by soluble methane monooxygenase” (Regents of the University of Minnesota, priority 1994, dated 1995)

Key:
[1] = system: Methylosinus trichosporium OB3b; assay: No-headspace (single phase) assay of TCE degradation by continuously cultured Mt OB3b; format: cell-based; conditions: for Rates: 0% methane, 10 min-15 min; for micromoles TCE removed · hr^-1 · g dry cells^-1: cells cultured with methane 45 ml/min, air 135 ml/min; for Micromoles TCE removed: culture 0.64 g cells/l
Procedure: Each culture of Mt OB3b was added to 1.8 ml serum bottle prewarmed to 30° C. and sealed with an 11 mm teflon-lined rubber septa. For comparisons requiring similar initial dissolved oxygen levels, anaerobic make-up media (usually 0.6 ml) was added to the bottles first and then the bottles were sealed. Air-saturated 30° C. Higgins media prepared as in Example I was added via gas-tight syringe (1.0 ml), while 1 atm pressure was maintained by allowing air to bleed through a 25 gauge needle. Finally, culture was added (concentrated to give desired density) while remaining headspace-was bled out through the 25 gauge needle. TCE was added with a syringe at the bottom of the sealed bottle, with a syringe at top of the bottle removing equivalent volume of culture. The assay time course was started with TCE (substrate) addition. Incubation was performed at 30° C. with agitation at 200 rpm on a platform shaker.
Assays were terminated by extraction at desired time points. The liquid-liquid extraction technique used 0.6 ml of pentane containing 1,2-dibromoethane as an internal standard added via gas-tight syringe to inverted assay bottle, while a second syringe with a needle below first needle level collected displaced solution. Partitioning was brought to equilibrium by centrifugation of bottles at 5000 rpm for 10 min. The organic layer was removed by gas-tight syringe and placed in a 1 ml serum bottle for chromatographic analysis. In some cases, dilution of sample or split injection was necessary. Electron-capture detection was preferred. The following gas chromatography operating parameters were used:
The following Tests 1, 2 and 3 were conducted according to the no-headspaceassay procedure described generally above. […]
In prewarmed (30° C.) 120 ml serum bottles, 1 ml of Mt OB3b cell suspension grown in a chemostat (A600 =1.460) were mixed with 9 mls of 30° C. Higgins media prepared as in Example I. One bottle was prepared by adding "spent" media from the chemostat (decant media after pelleting cells with centrifugation--10,000 rpm for 10 minutes) rather than fresh Higgins media. The bottles were sealed with 20 mm teflon-lined rubber septa, evacuated and refilled with air (0% methane). One bottle was heat-killed and used as a control.
1.76 ml of Mt OB3b cell suspension was added to sealed 1.8 ml serum bottles (25 gauge needle used to equilibrate pressure). 45 μl of 4 mM TCE stock were added to start the assay. Bottles were incubated at 30° C. with agitation on a shaker bath. Bottles were sacrificed at 2.5, 5.0, 10.0, 15.0 and 20.0 mins by displacing 0.6 ml aqueous solution with pentane containing 1 ppm 1,2-dibromoethane as an internal standard. Analysis was performed on a HP 5790A GC using ECD.

[2] = system: Methylosinus trichosporium OB3b; assay: Two-phase headspace assay of TCE degradation by continuously cultured Mt OB3b; format: cell-based
Procedure: Each culture of Mt OB3b was added in 2 ml quantities to 10 ml serum bottles. Bottles were sealed with 20 mm teflon-lined rubber septa. TCE was added to start the assay. Headspace accounted for 80% of total volume within bottles, but TCE concentration was added based on 2 ml aqueous phase. TCE resided principally in the headspace. All bottles were inverted in order to prevent possible TCE loss by trapping the compound in the headspace between the liquid phase and glass. Samples were incubated inverted at 30° C. with agitation (200 rpm on a platform shaker).
Headspace incubations were analyzed by direct injection of headspace into a gas chromatograph. This method may be performed without sacrificing a sample. It is important to prepare sound calibration curves for quantitation. The best method for external standardization is to prepare samples as if running an assay and heat-killing at 80° C. for 10 mins prior to TCE addition. Samples were incubated for 30 mins under test conditions to allow adequate time for TCE to partition among the numerous phases (air, water, cell material, and the like). Headspace samples were injected into a gas chromatograph using either FID or ECD. Numerous TCE concentrations were used to obtain a sound standardization curve.
Headspace assays of TCE degradation were conducted by adding bacterial cells from the continuous culture described in Example II or cells diluted with spent Higgins medium (2 mls) into assay vials (10 ml vials).
Rates were calculated from peak heights of recorder tracings from a gas chromatograph equipped with an electron capture detector.

[3] = target: T1, soluble methane monooxygenase (reductase, component B, hydroxylase) (Methylosinus trichosporium, UniProt P27353); assay: Degradation of 14C-TCE by purified methane monooxygenase components with NADH, HPLC analysis; format: biochemical, Methylosinus trichosporium OB3b
T1 construct: The cells were disintegrated by sonication; made in house; host or cells: native protein purified from cell paste of the methane-oxidizing bacterium (no recombinant host given)
T1 sequence (P27353 1-526): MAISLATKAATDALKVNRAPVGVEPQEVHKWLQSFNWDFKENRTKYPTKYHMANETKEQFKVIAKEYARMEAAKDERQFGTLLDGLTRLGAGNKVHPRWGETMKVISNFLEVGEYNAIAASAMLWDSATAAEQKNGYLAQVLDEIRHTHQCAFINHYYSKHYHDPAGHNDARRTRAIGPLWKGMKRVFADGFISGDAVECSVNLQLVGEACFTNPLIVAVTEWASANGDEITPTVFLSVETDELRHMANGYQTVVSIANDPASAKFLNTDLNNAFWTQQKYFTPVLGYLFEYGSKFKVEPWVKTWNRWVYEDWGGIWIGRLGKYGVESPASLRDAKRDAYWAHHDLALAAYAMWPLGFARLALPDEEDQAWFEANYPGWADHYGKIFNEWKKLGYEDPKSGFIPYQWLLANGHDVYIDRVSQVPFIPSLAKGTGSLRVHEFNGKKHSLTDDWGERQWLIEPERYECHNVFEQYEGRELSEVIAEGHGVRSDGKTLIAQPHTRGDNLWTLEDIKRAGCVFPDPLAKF
T1 sequence (P27354 1-394 partner): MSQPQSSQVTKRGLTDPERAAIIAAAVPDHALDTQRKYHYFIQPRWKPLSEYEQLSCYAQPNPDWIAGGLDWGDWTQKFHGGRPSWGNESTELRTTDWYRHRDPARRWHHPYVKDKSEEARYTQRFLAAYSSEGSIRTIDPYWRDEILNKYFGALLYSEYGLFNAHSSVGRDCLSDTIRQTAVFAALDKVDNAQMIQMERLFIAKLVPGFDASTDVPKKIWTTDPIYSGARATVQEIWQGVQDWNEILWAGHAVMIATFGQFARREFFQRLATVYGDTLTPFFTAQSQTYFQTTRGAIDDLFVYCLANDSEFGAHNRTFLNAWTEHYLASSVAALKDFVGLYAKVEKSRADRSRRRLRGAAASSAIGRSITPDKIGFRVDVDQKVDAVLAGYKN
T1 sequence (P27355 1-169 partner): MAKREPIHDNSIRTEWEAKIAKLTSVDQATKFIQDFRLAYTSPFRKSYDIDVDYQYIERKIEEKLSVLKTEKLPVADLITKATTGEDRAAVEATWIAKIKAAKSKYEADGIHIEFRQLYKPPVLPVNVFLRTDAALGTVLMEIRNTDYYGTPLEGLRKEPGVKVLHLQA
Procedure: The three components of methane monooxygenase, reductase, component B, and hydroxylase, were purified by the method of Fox and Lipscomb, supra, the disclosure of which is hereby incorporated by reference. All purification procedures were performed at 4° C. The cell paste (100 g) was suspended in 200 ml of 25 mM MOPS, pH 7.0, containing 200 μ M Fe(NH4 )2 (SO4)2.6H2 O and 2 mM cysteine (Buffer A). The cells were disintegrated by sonication. The sonicated suspension was centrifuged at 48000×g for 60 min. The supernatant was decanted, diluted with an additional 100 ml of buffer A, and adjusted to pH 7.0. The cell free extract was immediately loaded onto a fast flow DEAE Sepharose CL-6B column (40 mm×250 mm) equilibrated with buffer A. The column was then washed with 600 ml of buffer A. All MMO components were completely adsorbed. The MMO components were eluted with a 2000 ml gradient of 0.0 to 0.40M NaCl in buffer A. The hydroxylase eluted at 0.075M NaCl. The two additional fractions required for reconstituted hydroxylase activity, component B and the reductase, eluted at 0.18M NaCl and 0.27M NaCl, respectively.
105 nmol of uniformly labelled ^14 C-TCE was added to each vial by injection through the rubber septum above the reaction mixture until a final TCE concentration of 70 μM was reached. The reaction was allowed to proceed for 2 min at 25° C. and then quenched by the addition of sulfuric acid (Sigma Chemical Company, St. Louis, Miss.) at pH 2.0.
Following centrifugation to remove precipitated protein, the reaction mixtures were analyzed by high pressure liquid chromatography (HPLC).

Mt OB3b = assay: TCE oxidation by Mt OB3b grown by conventional methods (shake flask); format: cell-based, Methylosinus trichosporium OB3b; conditions: initial TCE concentrations of one ppm or higher
[4] = system: methane-oxidizing bacteria; conditions: soil exposed to 0.6% natural gas in air for 3 weeks, TCE average 150 μg/l in influent; cited from earlier work
[5] = system: methane-utilizing mixed culture; conditions: Fogel et al.; cited from earlier work
methanotrophic bacteria = conditions: optimal conditions, prior reports; cited from earlier work
[6] = system: Methylococcus capsulatus Bath; conditions: aerobe Methylococcus capsulatus Bath; cited from earlier work

## ClC=C(Cl)Cl [TCE, 1,1,2-trichloroethene]
[1]; Test 1, culture turbidity A600 1.310
  Rate of TCE-utilization (no headspace assay): 336 μmoles·hr^-1·g cells^-1
[1]; Test 2, culture turbidity A600 1.410
  Rate of TCE-utilization (no headspace assay): 1070 μmoles·hr^-1·g cells^-1
[1]; Test 3, culture turbidity A600 1.460
  Rate of TCE-utilization (no headspace assay): 2400 μmoles·hr^-1·g cells^-1
[1]; Test 3, times of most rapid oxidation
  Rate when most rapid oxidation of TCE occurred: approximately 3500 μmoles/h^-1.g cells^-1
[1]; Test 3 Run 2, 1/10 dilution in Higgins media
  Rates: 3200 μmoles·h^-1·g cells^-1
[1]; Test 3 Run 3, 1/10 dilution in spent Higgins media from chemostat
  Rates: 3960 μmoles·h^-1·g cells^-1
[1]; concentration of TCE 10 μM
  micromoles TCE removed · hr^-1 · g dry cells^-1: 829 micromoles TCE removed·hr^-1·g
[1]; concentration of TCE 25 μM
  micromoles TCE removed · hr^-1 · g dry cells^-1: 1104 micromoles TCE removed·hr^-1·g
[1]; concentration of TCE 50 μM
  micromoles TCE removed · hr^-1 · g dry cells^-1: 1194 micromoles TCE removed·hr^-1·g
[1]; concentration of TCE 40 μm, 5-10 min.
  Micromoles TCE removed: 2.96 µmol/min
[1]; concentration of TCE 80 μm, 5-10 min.
  Micromoles TCE removed: 5.69 µmol/min
[1]; concentration of TCE 80 μm, 10-15 min.
  Micromoles TCE removed: 3.03 µmol/min
[1]; concentration of TCE 320 μm, 5-10 min.
  Micromoles TCE removed: 15.54 µmol/min
[1]; concentration of TCE 320 μm, 10-15 min.
  Micromoles TCE removed: 10.2 µmol/min
[1]; concentration of TCE 640 μm, 10-25 min.
  Micromoles TCE removed: 10.48 µmol/min
[1]; concluded from Table VIII and other experiments, read-out: Ks for TCE oxidation
  Km: ~5 µM
[1]; methane added 5% saturation, cell density approx. 0.16 g/l, nominal initial TCE 80 μM
  Rate of TCE oxidation: 3350 μmoles·hr^-1·g cells^-1
[1]; methane added 10% saturation, cell density approx. 0.16 g/l, nominal initial TCE 80 μM
  Rate of TCE oxidation: 3000 μmoles·hr^-1·g cells^-1
[1]; methane added 20% saturation, cell density approx. 0.16 g/l, nominal initial TCE 80 μM
  Rate of TCE oxidation: 875 μmoles·hr^-1·g cells^-1
[1]; methane added 50% saturation, cell density approx. 0.16 g/l, nominal initial TCE 80 μM
  Rate of TCE oxidation: 110 μmoles·hr^-1·g cells^-1
[1]; methane added: none, cell density approx. 0.16 g/l, nominal initial TCE 80 μM
  Rate of TCE oxidation: 660 μmoles·hr^-1·g cells^-1
[1]; some cell batches, without any methane present
  Rate of TCE oxidation: approximately 4000 micro-moles.hr^-1.g cells^-1
[1]; under optimal conditions, belief, extrapolated
  Rate at which cells are believed able to oxidize TCE: 10,000 μmoles.h^-1.g cells^-1
[2]; cell density .070 g·l^-1, initial TCE 22 micromolar
  Rate, micromoles TCE oxidized · g cells^-1 · hr^-1: 808 micromoles TCE oxidized·g cell
[2]; cell density .173 g·l^-1, initial TCE 23 micromolar
  Rate, micromoles TCE oxidized · g cells^-1 · hr^-1: 461 micromoles TCE oxidized·g cell
[2]; cell density .347 g·l^-1, initial TCE 22 micromolar
  Rate, micromoles TCE oxidized · g cells^-1 · hr^-1: 465 micromoles TCE oxidized·g cell
[2]; cell density .521 g·l^-1, initial TCE 22 micromolar
  Rate, micromoles TCE oxidized · g cells^-1 · hr^-1: 308 micromoles TCE oxidized·g cell
[2]; cell density .695 g·l^-1, initial TCE 22 micromolar
  Rate, micromoles TCE oxidized · g cells^-1 · hr^-1: 281 micromoles TCE oxidized·g cell
[2]; low cell densities, initial TCE 80 μM, culture cell mass 0.825 g/l (FIG. 1)
  Rate of TCE degradation: 1200 micromoles TCE removed.hr^-1.g cells^-1
[3]; 70 μM 14C-TCE, 2 min at 25° C., HPLC
  Products of TCE oxidation: formic acid, glyoxylic acid, dichloroacetic acid, and chloral
[3]; 70 μM 14C-TCE, 2 min at 25° C., reductase 110 μg, component B 13 μg, hydroxylase 250 μg, NADH 0.1 mM
  TCE converted to HPLC-detectable products: 53%
[3]; each one of the methane monooxygenase components or NADH omitted
  Products of TCE oxidation in control incubations: no products of TCE oxidation were detectable
Mt OB3b
  Removal at which oxidation of TCE ceased: about 50%
[4]
  Applied TCE passing through the soil: less than 5%
[5]
  Rate of TCE degradation: approximately 2.5 μmoles per hour per gram of cells
Methanotrophic bacteria
  Rates of TCE degradation reported: exceed 100 μmoles per hour per gram of cells

## ClC(Cl)Cl [chloroform]
[6]
  Oxidation rate: 35 nano-moles per gram of cells per minute
